Reference: US11020395B2, “Cycloalkyl substituted triazole compounds as agonists of the APJ receptor” (AMGEN INC., priority 2016, dated 2021)

Biological target: human APJ receptor (Homo sapiens (Human), UniProt P35414)
Assay: [35S]GTPγS binding assay on membranes from CHO cells stably expressing human APJ receptor
Assay type: biochemical
Details: [35S]GTPγS SPA, read-out: Activity hAPJ SPA EC50 IP
Method: [^35S]GTPγS Binding The human APJ receptor was cloned by polymerase chain reaction and the gene encoding the receptor was subcloned in pFLAG-CMV™-3 expression vector (Sigma, Saint Louis, Mo. USA) in-house at Amgen. A GTPγS binding assay was performed on membranes prepared from CHO cells stably expressing human APJ receptor. The optimum experimental conditions for the concentrations of GDP, MgCl2, and NaCl in the assay buffer were initially determined. […] Incubation was at RT for 90 min and the microplate was read using a ViewLux™ ultra HTS Microplate Imager (PerkinElmer, Inc.). All the results presented are means of several independent experiments and analyzed by non-linear regression methods using the commercially available program Prism (GraphPad, San Diego, Calif.) providing the EC50 values detailed in Table 25.

Chain of human APJ receptor (P35414 whole entry): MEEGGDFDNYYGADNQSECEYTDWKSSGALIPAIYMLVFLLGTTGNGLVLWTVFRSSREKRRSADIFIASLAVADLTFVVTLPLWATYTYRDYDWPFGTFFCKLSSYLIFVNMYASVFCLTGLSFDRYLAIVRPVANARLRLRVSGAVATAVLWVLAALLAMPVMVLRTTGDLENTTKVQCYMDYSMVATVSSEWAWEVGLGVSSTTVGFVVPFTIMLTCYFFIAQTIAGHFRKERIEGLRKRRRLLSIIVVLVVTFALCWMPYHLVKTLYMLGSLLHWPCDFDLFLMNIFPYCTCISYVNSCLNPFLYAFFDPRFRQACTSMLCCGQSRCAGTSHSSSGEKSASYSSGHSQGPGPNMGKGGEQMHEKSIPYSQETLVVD

| Compound | EC50 [nM] |
| --- | --- |
| COc1cccc(OC)c1-n1c(NS(=O)(=O)[C@@H](C)[C@H](OC)c2ncc(Cl)cn2)nnc1C1CC(C)(C)C1 [Example 119.0] | 0.79 |
| COc1ncnc(OC)c1-n1c(NS(=O)(=O)[C@@H](C)[C@H](OC)c2ncc(Cl)cn2)nnc1[C@H]1C[C@]2(CC2(F)F)C1 (single isomer, unassigned) [Example 204.0, (1R,2S)-1-(5-chloropyrimidin-2-yl)-N-(5-((3R,5s)-1,1-difluorospiro[2.3]hexan-5-yl)-4-(4,6-dimethoxypyrimidin-5-yl)-4H-1,2,4-triazol-3-yl)-1-methoxypropane-2-sulfonamide or (1R,2S)-1-(5-chloropyrimidin-2-yl)-N-(5-((3S,5r)-1,1-difluorospiro[2.3]hexan-5-yl)-4-(4,6-dimethoxypyrimidin-5-yl)-4H-1,2,4-triazol-3-yl)-1-methoxypropane-2-sulfonamide] | 34 |
| COc1ncnc(OC)c1-n1c(NS(=O)(=O)[C@@H](C)[C@H](OC)c2ncc(Cl)cn2)nnc1[C@H]1C[C@@H](F)C1 (single isomer, unassigned) [Example 163.0, (1R,2S)-1-(5-chloropyrimidin-2-yl)-N-(4-(4,6-dimethoxypyrimidin-5-yl)-5-((1s,3R)-3-fluorocyclobutyl)-4H-1,2,4-triazol-3-yl)-1-methoxypropane-2-sulfonamide or (1R,2S)-1-(5-chloropyrimidin-2-yl)-N-(4-(4,6-dimethoxypyrimidin-5-yl)-5-((1r,3S)-3-fluorocyclobutyl)-4H-1,2,4-triazol-3-yl)-1-methoxypropane-2-sulfonamide] | 46 |
| COc1ncnc(OC)c1-n1c(NS(=O)(=O)[C@@H](C)[C@H](OC)c2ncc(Cl)cn2)nnc1C1CC(OC)(OC)C1 [Example 238.0, (1R,25)-1-(5-chloro-2-pyrimidinyl)-N-(5-(3,3-dimethoxycyclobutyl)-4-(4,6-dimethoxy-5-pyrimidinyl)-4H-1,2,4-triazol-3-yl)-1-methoxy-2-propanesulfonamide] | 120 |
| (1R,2S)-1-(5-chloropyrimidin-2-yl)-N-(4-(2,6-dimethoxyphenyl)-5-((S)-spiro[2.2]pentan-1-yl)-4H-1,2,4-triazol-3-yl)-1-methoxypropane-2-sulfonamide or (1R,2S)-1-(5-chloropyrimidin-2-yl)-N-(4-(2,6-dimethoxyphenyl)-5-((R)-spiro[2.2]pentan-1-yl)-4H-1,2,4-triazol-3-yl)-1-methoxypropane-2-sulfonamide [Example 222.0] | 24 |
| COc1ncnc(OC)c1-n1c(NS(=O)(=O)[C@@H](C)[C@H](OC)c2ncc(Cl)cn2)nnc1C1CCCC1 [Example 19.0, (1R,2S)-1-(5-chloropyrimidin-2-yl)-N-(5-cyclopentyl-4-(4,6-dimethoxypyrimidin-5-yl)-4H-1,2,4-triazol-3-yl)-1-methoxypropane-2-sulfonamide] | 1.1 |
| COc1cccc(OC)c1-n1c(NS(=O)(=O)[C@@H](C)[C@@H](OC(C)C)c2ncc(C)cn2)nnc1[C@@H]1CCC(F)(F)C1 (mixture of isomers) [Example 232.0, (1S,2S)-N-(5-((1R)-3,3-difluorocyclopentyl)-4-(2,6-dimethoxyphenyl)-4H-1,2,4-triazol-3-yl)-1-(5-methyl-2-pyrimidinyl)-1-(2-propanyloxy)-2-propanesulfonamide and (1S,2S)-N-(5-((1S)-3,3-difluorocyclopentyl)-4-(2,6-dimethoxyphenyl)-4H-1,2,4-triazol-3-yl)-1-(5-methyl-2-pyrimidinyl)-1-(2-propanyloxy)-2-propanesulfonamide] | 42 |
| COc1ncnc(OC)c1-n1c(NS(=O)(=O)[C@@H](C)[C@H](OC)c2ncc(Cl)cn2)nnc1C1CC2(COC2)C1 [Example 240.0, (1R,2S)-1-(5-chloro-2-pyrimidinyl)-N-(4-(4,6-dimethoxy-5-pyrimidinyl)-5-(2-oxaspiro[3.3]heptan-6-yl)-4H-1,2,4-triazol-3-yl)-1-methoxy-2-propanesulfonamide] | 71 |
| COc1ncnc(OC)c1-n1c(NS(=O)(=O)[C@@H](C)[C@H](OC)c2ncc(Cl)cn2)nnc1[C@H]1CC[C@H]1C (single isomer, unassigned) [Example 188.0, (1R,2S)-1-(5-chloropyrimidin-2-yl)-N-(4-(4,6-dimethoxypyrimidin-5-yl)-5-((1S,2R)-2-methylcyclobutyl)-4H-1,2,4-triazol-3-yl)-1-methoxypropane-2-sulfonamide or (1R,2S)-1-(5-chloropyrimidin-2-yl)-N-(4-(4,6-dimethoxypyrimidin-5-yl)-5-((1R,2S)-2-methylcyclobutyl)-4H-1,2,4-triazol-3-yl)-1-methoxypropane-2-sulfonamide] | 14 |
| COc1ncnc(OC)c1-n1c(NS(=O)(=O)[C@@H](C)[C@H](C)c2ccc(Cl)cn2)nnc1C1CCC1 [Example 87.0, (2S,3R)-3-(5-chloro-2-pyridinyl)-N-(5-cyclobutyl-4-(4,6-dimethoxy-5-pyrimidinyl)-4H-1,2,4-triazol-3-yl)-2-butanesulfonamide] | 2 |
| COc1cccc(OC)c1-n1c(NS(=O)(=O)[C@@H](C)[C@H](OC)c2ncc(C)cn2)nnc1C1CCC1 [Example 141.0] | 33 |
| COCC(COC)n1c(NS(=O)(=O)[C@@H](C)[C@H](OC)c2ncc(Cl)cn2)nnc1[C@H]1C[C@H](CO)C1 (single isomer, unassigned) [Example 131.0, (1R,2S)-1-(5-chloropyrimidin-2-yl)-N-(4-(1,3-dimethoxypropan-2-yl)-5-((1r,3S)-3-(hydroxymethyl)cyclobutyl)-4H-1,2,4-triazol-3-yl)-1-methoxypropane-2-sulfonamide or (1R,2S)-1-(5-chloropyrimidin-2-yl)-N-(4-(1,3-dimethoxypropan-2-yl)-5-((1s,3R)-3-(hydroxymethyl)cyclobutyl)-4H-1,2,4-triazol-3-yl)-1-methoxypropane-2-sulfonamide] | 110 |
| COCC1(n2c(NS(=O)(=O)[C@@H](C)[C@H](OC)c3ncc(Cl)cn3)nnc2[C@H]2C[C@H](CO)C2)CC1 (single isomer, unassigned) [Example 133.0, (1R,2S)-1-(5-chloro-2-pyriminidyl)-N-(5-(trans-3-(hydroxymethyl)cyclobutyl)-4-(1-(methoxymethyl)cyclopropyl)-4H-1,2,4-triazol-3-yl)-1-methoxy-2-propanesulfonamide or (1R,2S)-1-(5-chloro-2-pyrimidinyl)-N-(5-(cis-3-(hydroxymethyl)cyclobutyl)-4-(1-(methoxymethyl)cyclopropyl)-4H-1,2,4-triazol-3-yl)-1-methoxy-2-propanesulfonamide] | 120 |
| (1R,2S)-1-(5-chloropyrimidin-2-yl)-N-(5-((R)-2,2-dimethylcyclopropyl)-4-(tetrahydro-2H-pyran-4-yl)-4H-1,2,4-triazol-3-yl)-1-methoxypropane-2-sulfonamide or (1R,2S)-1-(5-chloropyrimidin-2-yl)-N-(5-((S)-2,2-dimethylcyclopropyl)-4-(tetrahydro-2H-pyran-4-yl)-4H-1,2,4-triazol-3-yl)-1-methoxypropane-2-sulfonamide [Example 20.0] | 840 |
| (2S,3R)-3-(5-chloropyrimidin-2-yl)-N-(5-((R)-2,2-difluorocyclopropyl)-4-(2,6-dimethoxyphenyl)-4H-1,2,4-triazol-3-yl)butane-2-sulfonamide or (2S,3R)-3-(5-chloropyrimidin-2-yl)-N-(5-((S)-2,2-difluorocyclopropyl)-4-(2,6-dimethoxyphenyl)-4H-1,2,4-triazol-3-yl)butane-2-sulfonamide [Example 221.0] | 18 |
| COc1cccc(OC)c1-n1c(NS(=O)(=O)[C@@H](C)[C@H](OC)c2ncc(Cl)cn2)nnc1C1CC2(CCC2)C1 [Example 236.0, (1R,2S)-1-(5-chloro-2-pyrimidinyl)-N-(4-(2,6-dimethoxyphenyl)-5-(spiro[3.3]heptan-2-yl)-4H-1,2,4-triazol-3-yl)-1-methoxy-2-propanesulfonamide] | 0.99 |
| COc1ncnc(OC)c1-n1c(NS(=O)(=O)[C@@H](C)[C@H](C)c2ncc(F)cn2)nnc1C1CCC1 [Example 84.0, (2S,3R)-N-(5-cyclobutyl-4-(4,6-dimethoxy-5-pyrimidinyl)-4H-1,2,4-triazol-3-yl)-3-(5-fluoro-2-pyrimidinyl)-2-butanesulfonamide] | 10.8 |
| COc1ncnc(OC)c1-n1c(NS(=O)(=O)[C@@H](C)[C@H](OC)c2ncc(Cl)cn2)nnc1[C@H]1CC[C@@H](F)CC1 (single isomer, unassigned) [Example 176.0, (1R,2S)-1-(5-chloropyrimidin-2-yl)-N-(4-(4,6-dimethoxypyrimidin-5-yl)-5-((1s,4R)-4-fluorocyclohexyl)-4H-1,2,4-triazol-3-yl)-1-methoxypropane-2-sulfonamide or (1R,2S)-1-(5-chloropyrimidin-2-yl)-N-(4-(4,6-dimethoxypyrimidin-5-yl)-5-((1r,4S)-4-fluorocyclohexyl)-4H-1,2,4-triazol-3-yl)-1-methoxypropane-2-sulfonamide] | 17 |
| COc1ncnc(OC)c1-n1c(NS(=O)(=O)[C@@H](C)[C@H](OC)c2ncc(Cl)cn2)nnc1[C@H]1CC[C@@H](C(F)(F)F)CC1 (single isomer, unassigned) [Example 172.0, (1R,2S)-1-(5-chloropyrimidin-2-yl)-N-(4-(4,6-dimethoxypyrimidin-5-yl)-5-((1s,4R)-4-(trifluoromethyl)cyclohexyl)-4H-1,2,4-triazol-3-yl)-1-methoxypropane-2-sulfonamide or (1R,2S)-1-(5-chloropyrimidin-2-yl)-N-(4-(4,6-dimethoxypyrimidin-5-yl)-5-((1r,4S)-4-(trifluoromethyl)cyclohexyl)-4H-1,2,4-triazol-3-yl)-1-methoxypropane-2-sulfonamide] | 370 |
